From patent US20240116961A1, “TRIPHENYPHOSPHINE MODIFIED SERTRALINE DERIVATIVE AND METHODS THEREOF” (XIAMEN UNIVERSITY, priority 2022, published 2024)

How the values were obtained:
tumor cells = assay: Mitophagy by transmission electron microscopy; format: cell-based; conditions: concentration 0.3 μM, work time 3 hours; FIG. 3
Experimental: • (1) Apparatus: Transmission electron microscope Hitachi HT-7800 • (2) Reagent: glutaraldehyde • (3) Experimental method: cells are inoculated in a 6 cm diameter Petri dish and incubated with the compounds for 3 hours. The culture solution is poured out; a 2 mL glutaraldehyde working solution (2.5% glutaraldehyde and phosphate buffer (PB) system) restored to room temperature is added and put into a refrigerator at 4° C. after fixation for 15 minutes at room temperature; the fixation solution is diluted 2-3 times with PB after fixation for 2-3 hours, the PB used for washing is poured off, PB containing 5% Bovine albumin (BSA) is added with an amount of 1 mL, and the adherent fixed cells are scraped off using a cell scraper, collected into 1.5 mL centrifuge tubes, and centrifuged for 4-5 minutes at 2,500 revolutions per minute (rpm) at 4° C. to prepare samples. The images are analyzed by a transmission electron microscope.

[1] = Immunohistochemistry of heart, liver, spleen, lung and kidney in tumor-bearing mice; format: in vivo, BALB/c (nu/nu) nude mice; conditions: 1 mg/kg intraperitoneal injection once a day for 15 days; FIG. 6
Experimental: BALB/c (nu/nu) nude mice (with weights of 18-20 g and raised in an SPF-level animal room) are selected to construct a mouse transplantation tumor model in vitro, the mice are grouped and inoculated with human non-small cell lung cancer cells (A549), and tumor volumes in the mice grow to 100-300 mm^3. The drug is administered by intraperitoneal injection, and each mouse in an administration group is administered once a day and 1 mg/kg once according to body weight. In a control group, each mouse is administrated with a same volume of PBS buffer, the volume of each mouse is measured simultaneously, and the drug is continuously administered for 15 days. After the drug administration and treatment process is complete, the mice are killed by cervical dislocation, and the mouse tumors are stripped, photographed, and weighed.

Compound	autophagosome formation / mitophagy (tumor cells)	toxic side effects (heart, liver, spleen, lung, kidney) [1]
CN(C(=O)CC[P+](c1ccccc1)(c1ccccc1)c1ccccc1)[C@H]1CC[C@@H](c2ccc(Cl)c(Cl)c2)c2ccccc21 [Mito-2-Ser, (3-(((1S,4S)-4-(3,4-dichlorophenyl)-1,2,3,4-tetrahydronaphthalen-1-yl)(methyl)amino)-3-propanoyl)triphenylphosphine]	induce autophagosome formation to phagocytize mitochondria	
CN(C(=O)CCCCCCCCCC[P+](c1ccccc1)(c1ccccc1)c1ccccc1)[C@H]1CC[C@@H](c2ccc(Cl)c(Cl)c2)c2ccccc21 [Mito-10-Ser, (11-(((1S,4S)-4-(3,4-dichlorophenyl)-1,2,3,4-tetrahydronaphthalen-1-yl)(methyl)amino)-11-oxoundecyl)triphenylphosphine]		did not have significant toxic side effects
CN(C(=O)CCCCCCCCCCCC[P+](c1ccccc1)(c1ccccc1)c1ccccc1)[C@H]1CC[C@@H](c2ccc(Cl)c(Cl)c2)c2ccccc21 [Mito-12-Ser, (13-(((1S,4S)-4-(3,4-dichlorophenyl)-1,2,3,4-tetrahydronaphthalen-1-yl)(methyl)amino)-13-oxytridecyl)triphenylphosphine]	induce autophagosome formation to phagocytize mitochondria	
